Laboratory results from patent publication US20250215042A1, “MANNOSE-TARGETED COMPOSITIONS” (GENEVANT SCIENCES GMBH, priority 2022, published 2025).
Each block holds one molecule with its values, some of them ahead of it.

Tests used:
[1] = test system: human CD14+ monocyte derived M1 macrophages; experiment: Binding of biotin-mannose/AF488-streptavidin complex to M1 macrophages (flow cytometry); type: cell-based; settings: for mannose ligand conjugated fluorescence (ligand binding): M1 macrophages, complex at 0.5, 0.1 and 0.02 μM, 4° C., 1.5 hours; for binding to M1 macrophages, tetra-, hexa- and octa-valent compared: FIG. 3
[2] = test system: human CD14+ monocyte derived M2 macrophages; experiment: Binding of biotin-mannose/AF488-streptavidin complex to M2 macrophages (flow cytometry); type: cell-based; settings: FIG. 2; for mannose ligand conjugated fluorescence (ligand binding): M2 macrophages, complex at 0.5, 0.1 and 0.02 μM, 4° C., 1.5 hours
M1 macrophages = experiment: D-mannose competition with Cy3-tetra-mannose-siCD45 uptake in M1 macrophages; type: cell-based, human; settings: competitor 139 mM, 5 minutes before conjugate 5 μg/mL, 1 hour; FIG. 5
Description: OptiMEM containing D-mannose or D-galactose was added onto testing cells to reach the final concentration of 139 mM and incubated at 37° C. for 5 minutes. […] The cells were then washed with PBS 3 times and fixed with 4% PFA for 10 minutes at room temperature. The chambers were removed from the slides and the cells were mounted with one drop of mounting media containing DAPI staining for the nuclei. The slides were covered, sealed and analyzed under fluorescent microscope.

binding affinity ranked by valency (mono-, di-, tetra-valent) ([1]; M1 cells, FIG. 2): highest binding affinity
mannose ligand conjugated fluorescence (ligand binding) ([1]; FIG. 2): Dose dependent increase
binding affinity ranked by valency (mono-, di-, tetra-valent) ([2]; M2 cells): highest binding affinity
mannose ligand conjugated fluorescence (ligand binding) [2]: Dose dependent increase
Structure (SMILES): O=C(CC[C@H](NC(=O)CCCC[C@H]1SC[C@H]2NC(=O)N[C@H]21)C(=O)NCC(=O)Nc1cc(C(=O)NCCOCCOCCO[C@H]2O[C@H](CO)[C@@H](O)[C@H](O)[C@@H]2O)cc(C(=O)NCCOCCOCCO[C@H]2O[C@H](CO)[C@@H](O)[C@H](O)[C@@H]2O)c1)NCC(=O)Nc1cc(C(=O)NCCOCCOCCO[C@H]2O[C@H](CO)[C@@H](O)[C@H](O)[C@@H]2O)cc(C(=O)NCCOCCOCCO[C@H]2O[C@H](CO)[C@@H](O)[C@H](O)[C@@H]2O)c1 [Compound 36]

mannose ligand conjugated fluorescence (ligand binding) ([1]; FIG. 2): Dose dependent increase
mannose ligand conjugated fluorescence (ligand binding) [2]: Dose dependent increase
Structure (SMILES): O=C(CCCC[C@@H]1SC[C@@H]2NC(=O)N[C@@H]21)NCC(=O)Nc1cc(C(=O)NCCOCCOCCO[C@H]2O[C@H](CO)[C@@H](O)[C@H](O)[C@@H]2O)cc(C(=O)NCCOCCOCCO[C@H]2O[C@H](CO)[C@@H](O)[C@H](O)[C@@H]2O)c1 [Compound 35]

The remaining lines, values behind:

Structure (SMILES): O=C(CCCC[C@@H]1SC[C@@H]2NC(=O)N[C@@H]21)NCCCCCCOC1O[C@H](CO)[C@@H](O)[C@H](O)[C@@H]1O (stereo partly shown) [Compound 39]
mannose ligand conjugated fluorescence (ligand binding) ([1]; FIG. 2): Dose dependent increase
mannose ligand conjugated fluorescence (ligand binding) [2]: Dose dependent increase

Structure (SMILES): O=C[C@@H](O)[C@@H](O)[C@H](O)[C@H](O)CO [D-mannose]
competitive inhibition of uptake of Cy3-tetra-mannose-siCD45 (M1 macrophages): substantially inhibited the uptake

Structure (SMILES): O=C(CCC(CCC(=O)NCC(=O)Nc1cc(C(=O)NCCOCCOCCO[C@H]2O[C@H](CO)[C@@H](O)[C@H](O)[C@@H]2O)cc(C(=O)NCCOCCOCCO[C@H]2O[C@H](CO)[C@@H](O)[C@H](O)[C@@H]2O)c1)(CCC(=O)NCC(=O)Nc1cc(C(=O)NCCOCCOCCO[C@H]2O[C@H](CO)[C@@H](O)[C@H](O)[C@@H]2O)cc(C(=O)NCCOCCOCCO[C@H]2O[C@H](CO)[C@@H](O)[C@H](O)[C@@H]2O)c1)NC(=O)CCCC[C@H]1SC[C@@H]2NC(=O)N[C@@H]21)NCC(=O)Nc1cc(C(=O)NCCOCCOCCO[C@H]2O[C@H](CO)[C@@H](O)[C@H](O)[C@@H]2O)cc(C(=O)NCCOCCOCCO[C@H]2O[C@H](CO)[C@@H](O)[C@H](O)[C@@H]2O)c1 [Compound 37]
binding to M1 macrophages, tetra-, hexa- and octa-valent compared ([1]; listed as Hexavalent mannose ligand): further increased binding
binding to M1 macrophages, tetra-, hexa- and octa-valent compared ([1]; listed as hexavalent mannose): highest binding affinity to M1 macrophages

Structure (SMILES): O=C[C@H](O)[C@@H](O)[C@@H](O)[C@H](O)CO [D-Galactose]
competitive inhibition of uptake of Cy3-tetra-mannose-siCD45 (M1 macrophages): no competitive binding effect

Structure (SMILES): O=C(CC[C@H](NC(=O)CC[C@H](NC(=O)CCCC[C@@H]1SC[C@@H]2NC(=O)N[C@@H]21)C(=O)N[C@@H](CCC(=O)NCC(=O)Nc1cc(C(=O)NCCOCCOCCO[C@H]2O[C@H](CO)[C@@H](O)[C@H](O)[C@@H]2O)cc(C(=O)NCCOCCOCCO[C@H]2O[C@H](CO)[C@@H](O)[C@H](O)[C@@H]2O)c1)C(=O)NCC(=O)Nc1cc(C(=O)NCCOCCOCCO[C@H]2O[C@H](CO)[C@@H](O)[C@H](O)[C@@H]2O)cc(C(=O)NCCOCCOCCO[C@H]2O[C@H](CO)[C@@H](O)[C@H](O)[C@@H]2O)c1)C(=O)NCC(=O)Nc1cc(C(=O)NCCOCCOCCO[C@H]2O[C@H](CO)[C@@H](O)[C@H](O)[C@@H]2O)cc(C(=O)NCCOCCOCCO[C@H]2O[C@H](CO)[C@@H](O)[C@H](O)[C@@H]2O)c1)NCC(=O)Nc1cc(C(=O)NCCOCCOCCO[C@H]2O[C@H](CO)[C@@H](O)[C@H](O)[C@@H]2O)cc(C(=O)NCCOCCOCCO[C@H]2O[C@H](CO)[C@@H](O)[C@H](O)[C@@H]2O)c1 [Compound 38]
binding to M1 macrophages, tetra-, hexa- and octa-valent compared [1]: did not show additional benefit
